Patent publication US11174251B2, “Compositions and methods for inhibition of the JAK pathway” (Rigel Pharmaceuticals, Inc., priority 2010, dated 2021)
Counter-ions that a name gives are not always drawn. Values belong to the compound of their own block, whether it stands above or below them.

Target: T1, JAK3 (Homo sapiens, UniProt P52333)
T1 construct: The Ramos B-cell line was acquired from ATCC (ATCC Catalog No. CRL-1596); host or cells: Ramos B-cell line (human)
T1 sequence (P52333 1-1124): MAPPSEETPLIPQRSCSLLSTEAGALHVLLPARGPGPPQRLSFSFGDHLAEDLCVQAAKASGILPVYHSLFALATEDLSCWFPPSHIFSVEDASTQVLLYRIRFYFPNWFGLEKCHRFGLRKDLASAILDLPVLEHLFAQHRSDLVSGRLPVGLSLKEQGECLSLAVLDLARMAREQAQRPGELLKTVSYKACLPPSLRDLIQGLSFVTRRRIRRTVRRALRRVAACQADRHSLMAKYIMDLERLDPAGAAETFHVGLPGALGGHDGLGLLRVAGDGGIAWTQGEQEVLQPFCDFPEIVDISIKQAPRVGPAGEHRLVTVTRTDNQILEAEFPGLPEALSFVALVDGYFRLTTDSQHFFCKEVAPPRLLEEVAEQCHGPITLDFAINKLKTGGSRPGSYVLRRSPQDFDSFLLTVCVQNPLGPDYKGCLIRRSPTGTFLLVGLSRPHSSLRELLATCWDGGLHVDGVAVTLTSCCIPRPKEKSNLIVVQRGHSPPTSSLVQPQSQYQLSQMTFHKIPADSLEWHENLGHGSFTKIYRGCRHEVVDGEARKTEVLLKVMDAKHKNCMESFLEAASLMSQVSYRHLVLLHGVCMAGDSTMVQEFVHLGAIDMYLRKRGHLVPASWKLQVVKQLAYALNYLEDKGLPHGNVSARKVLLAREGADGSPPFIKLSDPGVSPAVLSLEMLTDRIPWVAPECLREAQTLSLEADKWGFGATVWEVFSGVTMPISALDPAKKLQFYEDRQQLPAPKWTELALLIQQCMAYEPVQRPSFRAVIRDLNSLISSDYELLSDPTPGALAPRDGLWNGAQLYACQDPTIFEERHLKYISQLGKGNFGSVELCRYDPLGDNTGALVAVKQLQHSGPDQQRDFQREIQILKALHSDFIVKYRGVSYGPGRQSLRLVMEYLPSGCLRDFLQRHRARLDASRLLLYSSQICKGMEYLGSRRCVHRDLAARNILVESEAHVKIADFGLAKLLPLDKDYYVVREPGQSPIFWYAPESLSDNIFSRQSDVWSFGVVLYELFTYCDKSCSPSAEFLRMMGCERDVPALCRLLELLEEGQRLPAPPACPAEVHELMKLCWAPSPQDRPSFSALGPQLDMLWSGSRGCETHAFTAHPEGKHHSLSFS
Test: Assay for CD23 expression on Ramos B-cells stimulated by IL-4 (Table IV: ability to inhibit JAK3 activity)
Assay type: cell-based
Details: tested under conditions described in Example 3 (so in the source)
Summary of the method: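 IL-4-induced CD23 surface expression on human Ramos B cells, detected by flow cytometry after 20–24 h stimulation (IL-4 final 50 units/mL). Compound or DMSO added 1 h beforehand at 37 °C; cells kept in RPMI with 5% serum.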

Compound: COc1ccc(Nc2ncc(F)c(Nc3ccc4oc(=O)[nH]c4c3)n2)cc1 [Compound I-196, 5-(2-(4-methoxyphenylamino)-5-fluoropyrimidin-4-ylamino)benzo[d]oxazol-2(3H)-one formate salt]
- IC50: < 500 nM

Compound: COc1cc(Nc2ncc(F)c(Nc3ccc4oc(=O)[nH]c4c3)n2)cc(Cl)c1OC [Compound I-185, 5-(2-(3-chloro-4,5-dimethoxyphenylamino)-5-fluoropyrimidin-4-ylamino)benzo[d]oxazol-2(3H)-one trifluoroacetate salt]
- IC50: < 500 nM

Compound: Cc1cnc(Nc2ccc3c(c2)COC3=O)nc1Nc1ccc2oc(=O)[nH]c2c1 [II-10, 5-methyl-N4-(2-oxo-2,3-dihydro-1,3-benzoxazol-5-yl)-N2-(1-oxo-1,3-dihydro-isobenzofuran-5-yl)-2,4-pyrimidinediamine]
- IC50: < 500 nM

Compound: Cc1cnc(Nc2cc(C)c(C)c(C)c2)nc1Nc1ccc2oc(=O)n(COP(=O)(O)O)c2c1 [Compound I-132, 5-methyl-N4-[3-(phosphonooxy)methyl-2-oxo-2,3-dihydro-1,3-benzoxazol-5-yl]-N2-(3,4,5-trimethyl)phenyl-2,4-pyrimidinediamine Tris salt]
- IC50: < 500 nM

Compound: [2H]C([2H])([2H])c1c(C)cc(Nc2nccc(Nc3ccc4oc(=O)[nH]c4c3)n2)cc1C [Compound I-38, 5-(2-(3,5-dimethyl-4-d3-methyl)phenylamino)pyrimidin-4-ylamino)benzo[d]oxazol-2(3H)-one trifluoroacetate salt]
- IC50: < 500 nM

Compound: COc1c(F)ccc(Nc2ncc([N+](=O)[O-])c(Nc3ccc4oc(=O)[nH]c4c3)n2)c1F [Compound I-43, 5-(2-(2,4-difluoro-3-methoxyphenylamino)-5-nitropyrimidin-4-ylamino)benzo[d]oxazol-2(3H)-one trifluoroacetate salt]
- IC50: > 10000 nM

Compound: [2H]C([2H])([2H])c1c(C)cc(Nc2ncc(Cl)c(Nc3ccc4oc(=O)[nH]c4c3)n2)cc1C [Compound I-36, 5-(5-chloro-2-(3,5-dimethyl-4-d3-methyl)phenylamino)pyrimidin-4-ylamino)benzo[d]oxazol-2(3H)-one trifluoroacetate salt]
- IC50: < 500 nM

Compound: COc1ccc(Nc2ncc(C)c(Nc3ccc4oc(=O)[nH]c4c3)n2)c(F)c1 [Compound I-75, 5-(2-(2-fluoro-4-methoxyphenylamino)-5-methylpyrimidin-4-ylamino)benzo[d]oxazol-2(3H)-one trifluoroacetate salt]
- IC50: < 500 nM

Compound: CCCCc1ccc(Nc2ncc(C)c(Nc3ccc4oc(=O)[nH]c4c3)n2)cc1C [Compound I-148, N2-(4-n-butyl-3-methyl)phenyl-5-methyl-N4-(2-oxo-2,3-dihydro-1,3-benzoxazol-5-yl)-2,4-pyrimidinediamine]
- IC50: 5000 to 10000 nM

Compound: COC(=O)c1cc(Nc2ncc(C)c(Nc3ccc4oc(=O)[nH]c4c3)n2)cc(C)c1C [Compound I-144, N2-(3,4-dimethyl-5-methoxycarbonyl)phenyl-5-methyl-N4-(2-oxo-2,3-dihydro-1,3-benzoxazol-5-yl)-2,4-pyrimidinediamine]
- IC50: < 500 nM

Compound: COc1ccc(Nc2ncc(F)c(Nc3ccc4oc(=O)[nH]c4c3)n2)cc1C(F)F [Compound I-197, 5-(2-(3-(difluoromethyl)-4-methoxyphenylamino)-5-fluoropyrimidin-4-ylamino)benzo[d]oxazol-2(3H)-one formate salt]
- IC50: < 500 nM

Compound: Cc1cnc(Nc2cc(C)c(F)c(C(=O)O)c2)nc1Nc1ccc2oc(=O)[nH]c2c1 [Compound I-155, N2-(3-carboxy-4-fluoro-5-methyl)phenyl-5-methyl-N4-(2-oxo-2,3-dihydro-1,3-benzoxazol-5-yl)-2,4-pyrimidinediamine]
- IC50: 500 to 5000 nM

Compound: Cc1cnc(Nc2cc(C)c(C)c(C)c2)nc1Nc1ccc2oc(=O)[nH]c2c1 [Compound I-131, 5-methyl-N4-(2-oxo-2,3-dihydro-1,3-benzoxazol-5-yl)-N2-(3,4,5-trimethyl)phenyl-2,4-pyrimidinediamine benzenesulfonic acid salt]
- IC50: < 500 nM

Compound: Cc1cnc(Nc2cc(C)c(C)c(C)c2)nc1Nc1cc(CN2CCN(C(=O)OC(C)(C)C)CC2)c2oc(=O)[nH]c2c1 [Compound I-94, tert-butyl 4-((5-(2-(3,4,5-trimethylphenylamino)-5-methylpyrimidin-4-ylamino)-2,3-dihydro-2-oxobenzo[d]oxazol-7-yl)methyl)piperazine-1-carboxylate]
- IC50: 5000 to 10000 nM

The remaining lines, values ahead:

- IC50: < 500 nM
Compound: NS(=O)(=O)c1cccc(Nc2ncc(F)c(Nc3cc(F)c4oc(=O)[nH]c4c3)n2)c1 [Compound I-174, 3-(5-fluoro-4-(7-fluoro-2-oxo-2,3-dihydrobenzo[d]oxazol-5-ylamino)pyrimidin-2-ylamino)benzenesulfonamide trifluoroacetate salt]

- IC50: < 500 nM
Compound: COCCOc1c(C)ccc(Nc2ncc(F)c(Nc3ccc4oc(=O)[nH]c4c3)n2)c1F [Compound I-61, 5-(5-fluoro-2-(2-fluoro-3-(2-methoxyethoxy)-4-methylphenylamino)pyrimidin-4-ylamino)benzo[d]oxazol-2(3H)-one trifluoroacetate salt]

- IC50: < 500 nM
Compound: COCCOc1ccc(Nc2ncc(C)c(Nc3ccc4oc(=O)[nH]c4c3)n2)c(F)c1OCCOC [Compound I-77, 5-(2-(2-fluoro-3,4-bis(2-methoxyethoxy)phenylamino)-5-methylpyrimidin-4-ylamino)benzo[d]oxazol-2(3H)-one trifluoroacetate salt]

- IC50: > 10000 nM
Compound: COC(=O)c1cnc(Nc2ccc(C)c(OC)c2)nc1Nc1ccc2oc(=O)[nH]c2c1 [Compound I-56, 2-(3-Methoxy-4-methyl-phenylamino)-4-(2-oxo-2,3-dihydro-benzooxazol-5-ylamino)-pyrimidine-5-carboxylic acid methyl ester trifluoroacetate salt]

- IC50: < 500 nM
Compound: COCCOc1ccc(Nc2ncc(Cl)c(Nc3ccc4oc(=O)[nH]c4c3)n2)c(F)c1OCCOC [Compound I-78, 5-(5-chloro-2-(2-fluoro-3,4-bis(2-methoxyethoxy)phenylamino)pyrimidin-4-ylamino)benzo[d]oxazol-2(3H)-one trifluoroacetate salt]

- IC50: 500 to 5000 nM
Compound: NC(=O)c1cccc(Nc2nccc(Nc3ccc4oc(=O)[nH]c4c3)n2)c1 [Compound I-3, 3-(4-(2-oxo-2,3-dihydrobenzo[d]oxazol-5-ylamino)pyrimidin-2-ylamino)benzamide trifluoroacetate salt]

- IC50: < 500 nM
Compound: O=c1[nH]c2cc(Nc3nc(Nc4cc(F)cc(Cl)c4)ncc3Cl)ccc2o1 [Compound I-8, 5-(5-chloro-2-(3-chloro-5-fluorophenylamino)pyrimidin-4-ylamino)benzo[d]oxazol-2(3H)-one formate salt]

- IC50: < 500 nM
Compound: Cc1ccc(Nc2ncc(F)c(Nc3ccc4oc(=O)[nH]c4c3)n2)cc1S(C)(=O)=O [Compound I-167, 5-(2-(4-methyl-3-(methylsulfonyl)phenylamino)-5-fluoropyrimidin-4-ylamino)benzo[d]oxazol-2(3H)-one trifluoroacetate salt]

- IC50: < 500 nM
Compound: Cc1cnc(Nc2cc(C)c(F)c(CO)c2)nc1Nc1ccc2oc(=O)[nH]c2c1 [Compound I-154, N2-(4-fluoro-3-hydroxymethyl-5-methyl)phenyl-5-methyl-N4-(2-oxo-2,3-dihydro-1,3-benzoxazol-5-yl)-2,4-pyrimidinediamine]

- IC50: > 10000 nM
Compound: COC(=O)c1cnc(Nc2ccccc2)nc1Nc1ccc2oc(=O)[nH]c2c1 [Compound I-39, 4-(2-oxo-2,3-dihydro-benzooxazol-5-ylamino)-2-phenylamino-pyrimidine-5-carboxylic acid methyl ester trifluoroacetate salt]

- IC50: < 500 nM
Compound: Cc1cnc(Nc2cc(C)c(C)c(C)c2)nc1Nc1ccc2oc(=O)n(C)c2c1 [Compound I-126, 5-(2-(3,4,5-trimethylphenylamino)-5-methylpyrimidin-4-ylamino)-3-methylbenzo[d]oxazol-2(3H)-one trifluoroacetate salt]

- IC50: < 500 nM
Compound: Cc1ccc(Nc2ncc(F)c(Nc3ccc4oc(=O)[nH]c4c3)n2)cc1-c1ccncc1 [Compound I-203, 5-(2-(4-methyl-3-(pyridin-4-yl)phenylamino)-5-fluoropyrimidin-4-ylamino)benzo[d]oxazol-2(3H)-one]
